Test results from patent publication US11564913B2, “Compositions and methods for treating cancer” (Children's Hospital Medical Center, priority 2019, dated 2023).

How the values were obtained:
[1] = target: Vav3 binding to Rac in empty vector Ba/F3 cells (Mus musculus, UniProt Q9R0C8); assay: GST-Rac pull-down, immunoblot for pVav3; format: cell-based, murine; conditions: 3 μM, 30 min
Method: (§1) FIG. 14: IODVA1 targets Vav3 in vitro and in vivo. (A) Ba/F3 cells expressing empty vector Mieg3 or p190-BCR-ABL1 were treated with vehicle control or IODVA1 (IO1, 3 μM) for 30 min and incubated with GST-Rac and glutathione beads. Beads were washed and the protein complexes were separated on SDS-PAGE and immunoblotted for pVav3. Input Vav3 was used as control. (B) Binding affinity (Kd) between IODVA1 and Vav3 (green), LARG (brown), and RacGDP (blue). […] Error bars=SD; N=3. (C) Quantification of the average number of colonies made by bone marrow wild-type (black) and Vav3^−/− (lilac) p190-BCR-ABL1 leukemic cells treated with vehicle control or IODVA1 (IO1, 1 and 3 μM) (* p≤0.05; ** p≤0.01; *** p≤0.001; ns, not significant). (D) Representative histogram data of the cell cycle analysis of wild-type (black and grey bars) and Vav3^−/− (dark and light lilac) bone marrow cells expressing p190-BCR-ABL and treated with vehicle control or IODVA1 (IO1, 3 μM) for 20 h. (E) Quantification by densitometry of the pVav3 band from FIG. 14A. […]
(§2) Rac activity and signaling is regulated by GAPs, GDIs, and RacGEFs. […] The pull-down protein complex was separated on SDS-PAGE and immunoblotted for pVav3 and Vav3 and quantified (FIGS. 14A & 14E). […]

[2] = target: Vav3 binding to Rac in p190-BCR-ABL Ba/F3 cells (Mus musculus, UniProt Q9R0C8); assay: GST-Rac pull-down, immunoblot for pVav3; format: cell-based, murine; conditions: 3 μM, 30 min
Chain of Vav3 binding to Rac in p190-BCR-ABL Ba/F3 cells (Q9R0C8 whole entry): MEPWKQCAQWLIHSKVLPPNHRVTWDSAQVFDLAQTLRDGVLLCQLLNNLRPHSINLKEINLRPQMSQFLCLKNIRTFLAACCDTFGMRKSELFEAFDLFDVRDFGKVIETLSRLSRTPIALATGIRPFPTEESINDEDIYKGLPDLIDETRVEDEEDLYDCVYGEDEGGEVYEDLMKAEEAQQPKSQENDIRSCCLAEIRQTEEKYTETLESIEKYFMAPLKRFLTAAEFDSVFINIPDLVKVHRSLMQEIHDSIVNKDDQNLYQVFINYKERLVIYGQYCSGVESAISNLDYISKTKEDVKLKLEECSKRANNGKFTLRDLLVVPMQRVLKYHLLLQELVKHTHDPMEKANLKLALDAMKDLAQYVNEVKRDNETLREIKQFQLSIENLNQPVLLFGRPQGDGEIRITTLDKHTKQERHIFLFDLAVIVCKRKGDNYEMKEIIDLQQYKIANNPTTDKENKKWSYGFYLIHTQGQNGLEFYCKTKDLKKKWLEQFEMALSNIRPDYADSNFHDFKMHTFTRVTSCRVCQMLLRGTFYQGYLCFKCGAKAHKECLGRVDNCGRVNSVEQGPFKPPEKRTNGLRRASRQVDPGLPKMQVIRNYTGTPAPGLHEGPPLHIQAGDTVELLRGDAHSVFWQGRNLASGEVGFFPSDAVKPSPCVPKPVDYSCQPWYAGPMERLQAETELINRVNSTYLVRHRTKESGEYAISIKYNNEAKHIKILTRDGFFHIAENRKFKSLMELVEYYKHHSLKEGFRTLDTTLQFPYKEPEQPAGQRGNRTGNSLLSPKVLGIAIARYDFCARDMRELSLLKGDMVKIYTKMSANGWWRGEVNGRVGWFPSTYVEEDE
Method: as §1, §2

[3] = system: pVav3 in MDA-MB-231 xenograft tumors; assay: Immunohistochemistry of pVav3 in xenograft tumors; design: species or system mice; conditions: mouse, in vivo
Method: FIG. 16: IODVA1 decreases levels of pVav3 in in vitro and in vivo models of triple negative breast cancer. (A) Immunoblot and quantification of Vav3 protein in lysates of MDA-MB-231 triple negative breast cancer cells stably expressing scrambled or Vav3-targeting shRNAs. Viability of the MDA-MB-231 cells stably expressing shVav3 in the presence of IODVA1 (0-1 μM). Cells were grown in the presence of IODVA1 and counted by trypan blue exclusion at the indicated time points. (B) MDA-MB-231 cells were incubated with IODVA1 (3 μM) for 15 min and the levels of phosphorylated Vav3 (pY173) were assessed by immunoblotting. (C) Immunohistochemical staining of phosphorylated Vav3 in tissue derived from MDA-MB-231 xenografts treated with vehicle control or IODVA1.
To test if IODVA1 inhibits Vav3 in vivo, we took advantage of the MDA-MB-231 xenograft tumors we generated (FIG. 8A) and stained them by immunohistochemistry for pVav3.
Embedded tissues were cut into 4 μm sections then immunohistochemically stained using the Mouse on Mouse kit (MoM kit, Vector Laboratories). Tissue sections were subjected to sodium citrate antigen retrieval, pretreated with 0.3% hydrogen peroxide, blocked according to kit directions, and incubated with an antibody to phosphorylated Vav3 (1:200 dilution, Abcam) and HRP-conjugated anti-rabbit secondary (Vector Laboratories). […]

Chain of Vav3 binding to Rac in empty vector Ba/F3 cells (Q9R0C8 whole entry): as above

In the case of `OC1(c2ccccn2)N=C(Nc2nc3ccccc3[nH]2)N=C1c1ccccn1` (stereo not drawn) [IODVA1, (Z)-2-((1H-benzo[d]imidazol-2-yl)imino)-4,5-di(pyridin-2-yl)-2,5-dihydro-1H-imidazol-5-ol], the “Vav3 or pVav3 bound to Rac” value [1] is reported as “no significant change”, the “decrease in intensity of pVav3 band bound to Rac” value [2] is reported as 8 times and the “pVav3 staining of tumor sections versus vehicle control” value [3] is reported as “significant decrease”.
